Experimental findings from patent publication US8697709B2, “Fused ring heteroaryl kinase inhibitors” (The Regents of the University of California, priority 2008, dated 2014) are described below.

Residue numbers refer to the chain shown, from its start. Read-outs that look alike come from different tables or passages of the source. A value given as a limit tells only on which side of the number the result lay.

In one test the target is c-Src (Gallus gallus, UniProt P00523). The test can be described thus: In vitro kinase assay (32P peptide phosphorylation), WT Src. Format: biochemical.
A further test addresses T338G Src (Gallus gallus, UniProt P00523, T338G). The test can be described thus: In vitro kinase assay, T338G Src. Format: biochemical. The protocol: (§1) Kinase reactions were initiated by the addition of […] cold ATP supplemented with 5 mCi γ^32P ATP and allowed to proceed at room temperature (RT). At 10 minutes […] of the reactions were spotted onto phosphocellulose sheets (P81, Whatman) and subsequently soaked in wash buffer (1.0% (v/v) phosphoric acid). The sheets were washed five times in buffer, dried, and transferred radioactivity was measured by phosphorimaging using a TyphoonTM scanner (Molecular Dynamics). Radioactive counts were quantified using ImageQuantTM software, and titration data were fit to a sigmoidal dose response to derive IC50 values using the Prism® software package. Dose responses were based on a 12 point inhibitor titration, using 1⁄3 dilutions starting from […]. Experiments were completed 2-4 times to derive mean values.

The next test addresses T1, Abl (Homo sapiens, UniProt P00519).
T1 sequence (P00519 242-493 limits assumed): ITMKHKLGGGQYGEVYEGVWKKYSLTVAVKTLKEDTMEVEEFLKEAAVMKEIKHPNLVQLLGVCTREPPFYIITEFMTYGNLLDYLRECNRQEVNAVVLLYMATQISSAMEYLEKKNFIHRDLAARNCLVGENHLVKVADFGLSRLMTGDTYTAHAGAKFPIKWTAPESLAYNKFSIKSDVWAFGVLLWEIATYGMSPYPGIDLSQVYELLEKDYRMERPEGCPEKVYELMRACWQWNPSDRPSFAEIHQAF
The test can be described thus: In vitro kinase assay (32P peptide phosphorylation), WT Abl. Format: biochemical.

The next test addresses T2, T315A Abl (Homo sapiens, UniProt P00519, T315A).
T2 sequence (P00519 242-493 T315A limits assumed): T1 sequence (P00519 242-493 limits assumed) with T74A
The test can be described thus: In vitro kinase assay, T315A Abl. Format: biochemical. As for the experimental part:
as §1

The target in a further test is T3, T315I Abl (Homo sapiens, UniProt P00519, T315I).
T3 sequence (P00519 242-493 T315I limits assumed): T1 sequence (P00519 242-493 limits assumed) with T74I
The test can be described thus: In vitro kinase assay, T315I Abl. Format: biochemical. The conditions noted are these: Table 1b. As for the experimental part:
as §1

Test [1] deals with Bcr-Abl transduced BaF3 cells. The test can be described thus: Cell proliferation (Resazurin) of Bcr-Abl transduced BaF3 cells. Format: cell-based. The conditions noted are these: two day treatment, without IL-3.
Source text: The Bcr-Abl oncogene was transduced into BaF3 cells, rendering them IL-3-independent. “IL-3” refers to interleukin 3 which in human maps to gene locus 5q31.1, as known in the art. Recombinant IL-3 is available commercially. BaF3 is a hematopoietic cell line that is normally dependent on IL-3 for growth and proliferation. However, through expression of activated Bcr-Abl, the cells become transformed to an IL-3 independent state. In this assay, cell proliferation is directly correlated to the activity of Bcr-Abl. […] The parental BaF3 cells, but not the Bcr-Abl transduced cells, were grown in the presence of recombinant IL-3 during the time course of this experiment. After the two day treatment, cell proliferation was quantified using the dye Resazurin, which is converted into a fluorescently detectable form only when metabolized by living cells.
The next test deals with parental BaF3 cells. The test can be described thus: Cell proliferation (Resazurin) of parental BaF3 cells. Format: cell-based. The conditions noted are these: grown with recombinant IL-3; especially at 1 mM inhibitor. From the text:
The ability of AD57 to inhibit Bcr-Abl and T315I Bcr-Abl was examined in a cell based assay. The Bcr-Abl oncogene was transduced into BaF3 cells, rendering them IL-3-independent. “IL-3” refers to interleukin 3 which in human maps to gene locus 5q31.1, as known in the art. Recombinant IL-3 is available commercially. BaF3 is a hematopoietic cell line that is normally dependent on IL-3 for growth and proliferation. However, through expression of activated Bcr-Abl, the cells become transformed to an IL-3 independent state. In this assay, cell proliferation is directly correlated to the activity of Bcr-Abl. Wild-type Bcr-Abl, T315I Bcr-Abl, and parental BaF3 cells were treated with AD57 (Cmpd 5) at the indicated concentrations for two days. The parental BaF3 cells, but not the Bcr-Abl transduced cells, were grown in the presence of recombinant IL-3 during the time course of this experiment. After the two day treatment, cell proliferation was quantified using the dye Resazurin, which is converted into a fluorescently detectable form only when metabolized by living cells.
It is possible to inhibit the growth of BaF3 cells transduced with Bcr-Abl through non-specific inhibition mediated toxicity. Therefore, the effects of the inhibitors on the growth of parental BaF3 cells have also been measured.

Where [2] appears, read: Table 1a, read-out: IC50 WT Src.
Setting [3] is: Table 1a, read-out: IC50 WT Abl.
Setting [4] is: Table 1b, read-out: IC50 WT Src.
Where [5] appears, read: Table 1b, read-out: IC50 WT Abl.

Broadly, the IC50 is the point on the concentration scale where inhibition reaches its midpoint. Turning to `CC(C)n1nc(Cc2cccc(NC(=O)Nc3cccc(C(F)(F)F)c3)c2)c2c(N)ncnc21` [AD36, 1-(3-((4-amino-1-isopropyl-1H-pyrazolo[3,4-d]pyrimidin-3-yl)methyl)phenyl)-3-(3-(trifluoromethyl)phenyl)urea], the IC50 is 1000 to 5000 nM on c-Src (setting [2]), less than 1000 nM at T338G Src (Table 1a), 1000 to 5000 nM on Abl (setting [3]) and less than 1000 nM on T315A Abl (Table 1a).

For `CC(C)n1nc(-c2ccc(NC(=O)Nc3cccc(C(F)(F)F)c3)cc2)c2c(N)ncnc21` [AD57, 1-(4-(4-amino-1-isopropyl-1H-pyrazolo[3,4-d]pyrimidin-3-yl)phenyl)-3-(3-(trifluoromethyl)phenyl)urea], the half-inhibitory concentration (IC50) at c-Src (setting [4]) was less than 1000 nM; on c-Src (unphosphorylated kinase domain, 100 mM ATP, read-out: IC50 for c-Src), 25 nM; against T338G Src (Table 1b), less than 1000 nM; on Abl (setting [5]) it was less than 1000 nM; at Abl (unphosphorylated kinase domain, 100 mM ATP, read-out: IC50 for Abl) it was 41 nM; against T315I Abl, less than 1000 nM. Moreover, in test [1], the “inhibition of growth of Bcr-Abl BaF3 cells” value is “equally inhibits the growth”. Also, the “inhibition of growth of parental BaF3 cells” value in the test on parental BaF3 cells is “but not parental BaF3 cells”.

As for `CC(C)n1nc(-c2ccc(NC(=O)Nc3ccccc3)cc2)c2c(N)ncnc21` [AD58], the IC50 on c-Src (setting [4]), on Abl (setting [5]) and on T315I Abl was less than 1000 nM in each case.

For `Cn1nc(-c2ccc(NC(=O)Nc3cccc(C(F)(F)F)c3)cc2)c2c(N)ncnc21` [AD59, 1-(4-(4-amino-1-methyl-1H-pyrazolo[3,4-d]pyrimidin-3-yl)phenyl)-3-(3-(trifluoromethyl)phenyl)urea], the IC50 on Abl (setting [5]) and on T315I Abl was less than 1000 nM each time.

For `Nc1ncnc2c1c(-c1ccc(NC(=O)Nc3cccc(C(F)(F)F)c3)cc1)nn2C1CCCC1` [AD60, 1-(4-(4-amino-1-cyclopentyl-1H-pyrazolo[3,4-d]pyrimidin-3-yl)phenyl)-3-(3-(trifluoromethyl)phenyl)urea], the 50% inhibitory concentration (IC50) on Abl (setting [5]) and against T315I Abl was less than 1000 nM throughout.

For `CC(C)n1nc(-c2ccc(NC(=O)Nc3cccc(C(F)(F)F)c3)cc2)c2c(NC(=O)C3CC3)ncnc21` [AD61], the IC50 at c-Src (setting [4]), against T338G Src (Table 1b), on Abl (setting [5]), against T315A Abl (Table 1b) and against T315I Abl was less than 1000 nM in each case.

Consider `CC(C)n1nc(-c2ccc(NC(=O)Nc3cccc(C(F)(F)F)c3)cc2)c2c(NC(=O)C3CCCC3)ncnc21` [AD62], for which the IC50 on c-Src (setting [4]), against T338G Src (Table 1b), on Abl (setting [5]), on T315A Abl (Table 1b) and at T315I Abl was less than 1000 nM each time.

Take `CC(C)n1nc(-c2ccc(NC(=O)Nc3cccc(C(F)(F)F)c3)cc2)c2c(NC(=O)c3ccc(C(C)(C)C)cc3)ncnc21` [AD63]: the IC50 was more than 5000 nM at c-Src (setting [4]); 1000 to 5000 nM on T338G Src (Table 1b); more than 5000 nM at Abl (setting [5]); more than 5000 nM on T315A Abl (Table 1b); less than 1000 nM against T315I Abl.

On to `Nc1ncnc2c1c(Cc1cccc(NC(=O)Nc3cccc(C(F)(F)F)c3)c1)nn2C1CCCC1` [BB10, 1-(3-((4-amino-1-cyclopentyl-1H-pyrazolo[3,4-d]pyrimidin-3-yl)methyl)phenyl)-3-(3-(trifluoromethyl)phenyl)urea], for which the concentration for half-maximal inhibition (IC50) at c-Src (setting [2]) was less than 1000 nM; against T338G Src (Table 1a) it was less than 1000 nM; on Abl (setting [3]) it was 1000 to 5000 nM; against T315A Abl (Table 1a) it was less than 1000 nM. Also, on c-Src (ratio of IC50 values c-Src vs Abl), the “selectivity towards c-Src over Abl” value is “approximately 5 fold”.
